Measurements published in patent publication US5300491A, “Treatment of protozoal infection” (priority 1992, dated 1994).
Read-outs that look alike come from different tables or passages of the source.

Tested on: Entamoeba histolytica
Format: cell-based
Description: E. histolytica isolates representing three distinct zymodemes (I, II or XIV) were derived from a range of geographical locations. The patients from whom the isolates were obtained were either pathogenic (i.e. presented dysentery), or non-pathogenic (i.e., presented a non-dysenteric stage of infection characterized by passing of cysts or trophozoites). The following table identifies the E. histolytica isolates in accordance with the above criteria:
Each isolate was a xenic culture, i.e., it contained, in addition to the E. histolytica amoeba, the normally occurring patient faecal microflora. The cultures were maintained according to the method of Robinson, Trans. Roy. Soc. Trop. Med. Hyg. 62, 285-94, (1968). Bacitracin (70 I.U./mg) and its zinc salt (65 I.U./mg) were obtained from Apothekernes Laboratorium A.S (Oslo, Norway). Following microtitre-assay standardization and pilot testing of the drugs (results not presented), the following assay procedure was established. Bacitracin was screened over the range of 20.0-0.625 mg/ml by doubling dilution. 30 mg/ml bacitracin was also examined. […] The remaining wells were run as controls. An initial stock solution of 75 mg/ml bacitracin was prepared in starch-free Robinson medium (SFRM) . Subsequent to loading the first set of wells, the stock was diluted with SFRM to 50 mg/ml, which was used to prepare the remaining concentrations. […] 100 μl volumes of both drugs were then double-diluted in SFRM to provide 2.5X concentrates of the required final concentrations in the microtitre plates. 50 μl of a 25 mg% starch (BDH) solution (in SFRM) was then added to each well. 16-18 hours before the end of the required 48-hour culture period, the amoeba isolates were passaged to fresh tubes containing starch-free Robinson medium. At the end of the culture period, the amoebae were harvested in a small volume of medium and resuspended in at least 20 volumes SFRM. The suspensions were centrifuged at 1000 rpm for 5 minutes prior to re-suspension in fresh medium and counted in a modified Neubauer chamber. Amoebae were centrifuged as before and the pellet resuspended to a concentration of 2.5×10^4 /ml SFRM. 100 μl aliquots were then pipetted into respective wells to provide duplicate cultures of each isolate for each concentration assayed. The plates were then placed in an anaerobic chamber (HP11, Oxoid) at 37° C. for 24 hours. While this procedure provided sufficient starch for the amoebae, the concentration was such that at 24 hours the plates were easily read and quantitified by direct observation using an inverted microscope. Viability was assessed by the addition of Trypan blue to a final concentration of 0.1%.
Readings from each of the studies were collected and stored until all three experiments were completed in order to reduce any bias in subsequent readings. Minimun inhibitory and minimum lethal concentrations were given in mg/ml. […]

[1] = xenic isolate DOGO, Experiment 1
[2] = xenic isolate DOGO, Experiment 2
[3] = xenic isolate DOGO, Experiment 3
[4] = xenic isolate OMAk, Experiment 1
[5] = xenic isolate OMAk, Experiment 3
[6] = xenic isolate Sh2, Experiment 1
[7] = xenic isolate Sh2, Experiment 2
[8] = xenic isolate Sh2, Experiment 3
[9] = xenic isolate T2k, Experiment 1
[10] = xenic isolate T2k, Experiment 2
[11] = xenic isolate T2k, Experiment 3
[12] = xenic isolate URU1, Experiment 1
[13] = xenic isolate URU1, Experiment 2
[14] = xenic isolate URU1, Experiment 3
[15] = xenic isolate URU19, Experiment 1
[16] = xenic isolate URU19, Experiment 3

Zinc bacitracin
Minimum Inhibitory Concentration (MIC) (xenic isolate DA, Experiment 3): 630 µg/mL | Minimum Lethal Concentration (MLC) (xenic isolate DA, Experiment 3): 2500 µg/mL | Minimum Inhibitory Concentration (MIC) [1]: 160 µg/mL | Minimum Lethal Concentration (MLC) [1]: 2500 µg/mL | Minimum Inhibitory Concentration (MIC) [2]: 310 µg/mL | Minimum Lethal Concentration (MLC) [2]: 2500 µg/mL | Minimum Inhibitory Concentration (MIC) [3]: 310 µg/mL | Minimum Lethal Concentration (MLC) [3]: 1250 µg/mL | Minimum Inhibitory Concentration (MIC) (xenic isolate GS, Experiment 1): 630 µg/mL | Minimum Lethal Concentration (MLC) (xenic isolate GS, Experiment 1): 2500 µg/mL | Minimum Inhibitory Concentration (MIC) (xenic isolate GS, Experiment 2): 630 µg/mL | Minimum Lethal Concentration (MLC) (xenic isolate GS, Experiment 2): 2500 µg/mL | Minimum Inhibitory Concentration (MIC) (xenic isolate GS, Experiment 3): 310 µg/mL | Minimum Lethal Concentration (MLC) (xenic isolate GS, Experiment 3): 2500 µg/mL | Minimum Inhibitory Concentration (MIC) (xenic isolate MS, Experiment 1): 630 µg/mL | Minimum Lethal Concentration (MLC) (xenic isolate MS, Experiment 1): 2500 µg/mL | Minimum Inhibitory Concentration (MIC) (xenic isolate MS, Experiment 2): 630 µg/mL | Minimum Lethal Concentration (MLC) (xenic isolate MS, Experiment 2): 1250 µg/mL | Minimum Inhibitory Concentration (MIC) (xenic isolate MS, Experiment 3): 630 µg/mL | Minimum Lethal Concentration (MLC) (xenic isolate MS, Experiment 3): 2500 µg/mL | Minimum Inhibitory Concentration (MIC) [4]: 310 µg/mL | Minimum Lethal Concentration (MLC) [4]: 2500 µg/mL | Minimum Inhibitory Concentration (MIC) [5]: 160 µg/mL | Minimum Lethal Concentration (MLC) [5]: 2500 µg/mL | Minimum Inhibitory Concentration (MIC) (xenic isolate SI, Experiment 1): 630 µg/mL | Minimum Lethal Concentration (MLC) (xenic isolate SI, Experiment 1): 2500 µg/mL | Minimum Inhibitory Concentration (MIC) (xenic isolate SI, Experiment 3): 630 µg/mL | Minimum Lethal Concentration (MLC) (xenic isolate SI, Experiment 3): 2500 µg/mL | Minimum Inhibitory Concentration (MIC) [6]: 630 µg/mL | Minimum Lethal Concentration (MLC) [6]: 2500 µg/mL | Minimum Inhibitory Concentration (MIC) [7]: 630 µg/mL | Minimum Lethal Concentration (MLC) [7]: 2500 µg/mL | Minimum Inhibitory Concentration (MIC) [8]: 310 µg/mL | Minimum Lethal Concentration (MLC) [8]: 2500 µg/mL | Minimum Inhibitory Concentration (MIC) [9]: 630 µg/mL | Minimum Lethal Concentration (MLC) [9]: 5000 µg/mL | Minimum Inhibitory Concentration (MIC) [10]: 310 µg/mL | Minimum Lethal Concentration (MLC) [10]: 5000 µg/mL | Minimum Inhibitory Concentration (MIC) [11]: 160 µg/mL | Minimum Lethal Concentration (MLC) [11]: 2500 µg/mL | Minimum Inhibitory Concentration (MIC) (xenic isolate T4, Experiment 1): 310 µg/mL | Minimum Lethal Concentration (MLC) (xenic isolate T4, Experiment 1): 2500 µg/mL | Minimum Inhibitory Concentration (MIC) (xenic isolate T4, Experiment 2): 310 µg/mL | Minimum Lethal Concentration (MLC) (xenic isolate T4, Experiment 2): 2500 µg/mL | Minimum Inhibitory Concentration (MIC) (xenic isolate T4, Experiment 3): 160 µg/mL | Minimum Lethal Concentration (MLC) (xenic isolate T4, Experiment 3): 2500 µg/mL | Minimum Inhibitory Concentration (MIC) (xenic isolate T6, Experiment 1): 310 µg/mL | Minimum Lethal Concentration (MLC) (xenic isolate T6, Experiment 1): 2500 µg/mL | Minimum Inhibitory Concentration (MIC) (xenic isolate T6, Experiment 2): 630 µg/mL | Minimum Lethal Concentration (MLC) (xenic isolate T6, Experiment 2): 2500 µg/mL | Minimum Inhibitory Concentration (MIC) (xenic isolate T6, Experiment 3): 310 µg/mL | Minimum Lethal Concentration (MLC) (xenic isolate T6, Experiment 3): 2500 µg/mL | Minimum Inhibitory Concentration (MIC) [12]: 630 µg/mL | Minimum Lethal Concentration (MLC) [12]: 2500 µg/mL | Minimum Inhibitory Concentration (MIC) [13]: 1250 µg/mL | Minimum Lethal Concentration (MLC) [13]: 2500 µg/mL | Minimum Inhibitory Concentration (MIC) [14]: 630 µg/mL | Minimum Lethal Concentration (MLC) [14]: 2500 µg/mL | Minimum Inhibitory Concentration (MIC) [15]: 630 µg/mL | Minimum Lethal Concentration (MLC) [15]: 2500 µg/mL | Minimum Inhibitory Concentration (MIC) [16]: 310 µg/mL | Minimum Lethal Concentration (MLC) [16]: 2500 µg/mL
